We go through one compound from publication PMC3665789 (PLoS ONE, 2013).

Data set [1] concerns the target T1, CXCR4 (Homo sapiens, UniProt P61073). As to the kind of experiment: Intracellular calcium mobilization (FLIPR), U87.CD4.CXCR4 cells. It counts as cell-based. Also noted: expressed in transfected cells; host or cells: U87.CD4.CXCR4 (human astroglioma U87). Particulars: 9.6 µM. As for the experimental part:
Calcium (Ca^2+) mobilization assays were performed by the use of a fluorometric imaging plate reader (FLIPR) (Molecular Devices, Sunnyvale, CA) as described previously. Briefly, U87.CD4.CCR5 or U87.CD4.CXCR4 cells were digested by trypsin and seeded in gelatine-coated black-wall 96-well microplates at 2×10^4 cells per well. The next day, the cells were loaded with the fluorescent calcium indicator Fluo-3 acetoxymethyl ester (Molecular Probes, Leiden, The Netherlands) at 4 µM for 45 min at 37°C. Cells were washed 3 times in assay buffer (Hanks’ balanced salt solution with 20 mM HEPES buffer and 0.2% bovine serum albumin, pH 7.4) and incubated for 10 min with Laby A1. The intracellular calcium mobilization induced by LD78β in U87.CD4.CCR5 cells or by SDF-1 in U87.CD4.CXCR4 cells was then measured at 37°C by monitoring the fluorescence as a function of time simultaneously in all the wells. In addition, potential intracellular calcium mobilization induced by Laby A1 was also investigated.

The next data set concerns HIV-2 ROD (R5/X4). To be noted: read-out: EC50 (µM ± SEM), MT-4 cells, MTS/PES method.
The subject of data set [2] is HSV-1 wild-type KOS (reference strain). Particulars: HEL cells; HSV-1 KOS; reduction of virus-induced CPE by 50%.
Another data set concerns the target R5 HIV-1 gp120 ADA. As to the kind of experiment: Surface plasmon resonance. Format: binding. Particulars: SPR, immobilized gp120 ADA, 25°C. On the procedure:
Recombinant gp120 proteins from X4 HIV-1 IIIB strain (ImmunoDiagnostics Inc., Woburn, MA) and from R5 HIV-1 strains ADA and YU2 (ImmunoDiagnostics Inc.) were covalently immobilized on a CM5 sensor chip in 10 mM sodium acetate, pH 4.0, using standard amine coupling chemistry. The chip densities were 8200 resonance units (RUs), 10760 RUs and 9626 RUs, respectively. A reference flow cell was used as a control for non-specific binding and refractive index changes. All interaction studies were performed at 25°C on a Biacore T200 instrument (GE Healthcare, Uppsala, Sweden). The compounds LabyA1 and nisin were serially diluted in HBS-P (10 mM HEPES, 150 mM NaCl and 0,05% surfactant P20; pH 7.4) supplemented with 5% dimethyl sulfoxide (DMSO, Merck), and 10 mM CaCl2 covering a concentration range between 7.8 and 31.3 µM, by using two-fold dilution steps. Samples (in duplicate) were injected for 2 minutes at a flow rate of 45 µl/min and the dissociation was followed for 4 minutes. Several buffer blanks were used for double referencing. The CM5 sensor chip surface was regenerated with a single injection of 50 mM NaOH. A DMSO concentration series was included to eliminate the contribution of DMSO to the measured response. […] The experimental data were fit using the 1∶1 binding model Biacore T200 Evaluation software 1.0 to determine the binding kinetics.

Data set [3] has as its system HSV-2 wild-type RV-124 (clinical isolate). To be noted: HEL cells; HSV-2 RV-124; CPE.
A further data set relates to HSV-2. As to the kind of experiment: Cellular binding experiment: pre-treatment of cells, compound removed, HSV-2 infection. It counts as cell-based. To be noted: data not shown.
The target in data set [4] is T1, CXCR4. As to the kind of experiment: Anti-CXCR4 mAb binding on SupT1 cells (flow cytometry). Also noted: endogenous in cells; host or cells: SupT1 T cells (ATCC). As for the experimental part:
To determine the interaction of LabyA1 with CD4, SupT1 cells (100 µl; 3×10^6 cells/ml) were incubated for 20 min at 4°C with 9.6 µM, 1.9 µM or 0 µM LabyA1. After extensive washing with PBS/FCS2% (PBS supplemented with 2% FCS), anti-CD4-PE conjugated mAbs RPA-T4 (eBioscience, Vienna, Austria), MT441 (Ancell, Enzo Life sciences) and OKT-4 (eBioscience) were added for 30 min at 4°C. For aspecific background staining, cells were incubated with SimulTest™ Control (IgGγ1-FITC/IgGγ2a-PE) (BD Biosciences). After washing, and fixation with 1% formaldehyde solution, samples were analyzed using the FACSCalibur and CellQuest software (BD Biosciences). The same protocol was applied for anti-CXCR4 evaluation using the fluorochrome conjugated mAbs 12G5-PE and 2B11-FITC (both BD Biosciences).
A general note: A flow cytometer gives signals particle by particle.

For the next data set, the system named is HSV-2 wild-type. Particulars: read-out: Median EC50; median over HSV-2 wild-type strains; HEL cells.
For the next data set, the system named is HSV-2 strain G. As to the kind of experiment: Time-of-drug-addition study, HSV-2. It counts as cell-based. Particulars: HEL cells; LabyA1 19 µM, ACV 35 µM; after 3 days. On the procedure:
TOA experiments for HSV-2 were performed identically as the viral replication assays, but each compound separately (LabyA1 or ACV) was added together with the virus (0 h) or after 2 h post-infection. The reference compound was added at least 100 times its EC50-value, as obtained in the HEL cell line (Table 3).

Data set [5] relates to HSV-1 TK^- RV-294 (clinical isolate). To be noted: HEL cells, CPE.
Another data set deals with HSV. To be noted: read-out: anti-HSV activity EC50 range; range over HSV-1 and HSV-2 strains; CPE in HEL cells.
Data set [6] concerns HIV-1 UG270 (clinical isolate; X4). To be noted: PBMCs; UG270, group M subtype D; p24 Ag ELISA. (ELISA stands for enzyme-linked immunosorbent assay.)
Data set [7] concerns HSV-2 wild-type G (reference strain). Particulars: HEL cells; HSV-2 G; CPE.
The test system of the next data set is Lactobacillus strains. As to the kind of experiment: Vaginal Lactobacillus growth assay. Format: cell-based. To be noted: dose up to 120 µM; 24 h, OD600. On the procedure:
Lactobacillus strains grown overnight to stationary phase (OD600 nm ∼1.8–2.0) were used as inocula for the assay. The assay was performed in 96-well microtiter plates. Sterile wells were filled with 200 µl MRS (de Man – Rogosa – Sharpe) medium (BD Biosciences). About 0.5×10^7 colony forming units or CFUs (1/100 of an overnight culture) were added and then 5-fold dilution series of different concentrations of the used compounds were administered. The plates were incubated without shaking for 24 h at 37°C. The OD600 nm was measured after 24 h and as a negative control, each strain was grown in medium without compound (Petrova et al., in preparation).

T1 sequence (P61073 whole entry): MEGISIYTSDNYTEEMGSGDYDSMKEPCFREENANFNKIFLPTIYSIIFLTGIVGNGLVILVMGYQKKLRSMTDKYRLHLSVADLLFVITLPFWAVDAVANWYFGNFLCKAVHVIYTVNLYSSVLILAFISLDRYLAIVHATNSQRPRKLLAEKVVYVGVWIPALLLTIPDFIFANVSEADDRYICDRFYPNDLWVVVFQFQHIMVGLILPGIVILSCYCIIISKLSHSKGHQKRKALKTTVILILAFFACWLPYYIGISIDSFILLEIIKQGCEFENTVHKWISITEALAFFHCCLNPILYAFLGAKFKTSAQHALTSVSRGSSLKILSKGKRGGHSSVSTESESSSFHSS

With `C/C=C1\NC(=O)[C@H](Cc2ccccc2)NC(=O)[C@@H]2CCCN2C(=O)[C@H](C(C)C)NC(=O)[C@H](Cc2c[nH]c3ccccc23)NC(=O)[C@]23CSC[C@H](NC1=O)C(=O)N[C@H](C(=O)O)CSSC[C@H](NC(=O)[C@@H]1CSC[C@]4(C[C@H](N)C(=O)N[C@@H](CC(N)=O)C(=O)N[C@@H](C)C(=O)N4)C(=O)N[C@@H](C(C)C)C(=O)N[C@@H](Cc4c[nH]c5ccccc45)C(=O)N[C@@H](CCC(=O)O)C(=O)N1)C(=O)N[C@@H](C2)C(=O)N[C@@H]([C@@H](C)O)C(=O)NCC(=O)N3` [LabyA1, labyrinthopeptin A1], on CXCR4 [1], the “induction of calcium signaling by compound itself” value is “could not induce by itself calcium signaling”. Also, the “inhibition of SDF-1α (CXCL12)-induced intracellular calcium flux” value on CXCR4 [1] (100 ng/ml SDF-1α) is “could also not inhibit the intracellular calcium flux”. For the same compound, the EC50 with HIV-2 ROD (R5/X4) is 1.9 ± 0.7 µM; in data set [2], 560 ± 50 nM; in data set [3] it was 1400 ± 400 nM; with HSV-2 wild-type, 410 nM; in data set [5], 310 nM; with HSV it was 290 to 2800 nM. Besides, the EC50 was 1500 ± 100 nM in [6] and 320 ± 50 nM in data set [7]. Further, at R5 HIV-1 gp120 ADA, the Kd is 12300 ± 2200 nM. Also, the “inhibition of HSV-2 replication after pre-treatment of cells for 1 h and removal of compound” value in the data set with HSV-2 is “lost its ability to inhibit HSV-2 replication”. Moreover, on CXCR4 [4] (SupT1 cells, 9.6 µM and 1.9 µM), the “inhibition of binding of anti-CXCR4 mAb 12G5” value is recorded as “unable to inhibit”. Besides, the “binding of anti-CXCR4 mAbs clone 12G5 and 2B11 to CXCR4” value on CXCR4 [4] (data not shown) is given as “did not affect the binding”. In addition, the “HSV-2 induced CPE, compound given simultaneously with virus (0 h)” value in the data set with HSV-2 strain G is “no CPE or viral replication were observed”. For the same compound, the “antiviral activity, compound added after 2 h adsorption period” value in the data set with HSV-2 strain G was “significant decrease”. The “growth inhibitory effects on Lactobacillus strains” value in the data set with Lactobacillus strains was “no growth inhibitory effects were observed”.

As a reminder, the Kd is the concentration at which binding is half-saturated. Lower therefore signals tighter binding.
